Literature values in patent US8324203B2, “Azadecalin glucocorticoid receptor modulators” (Corcept Therapeutics, Inc., priority 2004, dated 2012).

What was measured:
[1] = target: GR (Homo sapiens, UniProt P04150)
[2] = test system: patients with Cushing's syndrome

Chain of GR (P04150 whole entry): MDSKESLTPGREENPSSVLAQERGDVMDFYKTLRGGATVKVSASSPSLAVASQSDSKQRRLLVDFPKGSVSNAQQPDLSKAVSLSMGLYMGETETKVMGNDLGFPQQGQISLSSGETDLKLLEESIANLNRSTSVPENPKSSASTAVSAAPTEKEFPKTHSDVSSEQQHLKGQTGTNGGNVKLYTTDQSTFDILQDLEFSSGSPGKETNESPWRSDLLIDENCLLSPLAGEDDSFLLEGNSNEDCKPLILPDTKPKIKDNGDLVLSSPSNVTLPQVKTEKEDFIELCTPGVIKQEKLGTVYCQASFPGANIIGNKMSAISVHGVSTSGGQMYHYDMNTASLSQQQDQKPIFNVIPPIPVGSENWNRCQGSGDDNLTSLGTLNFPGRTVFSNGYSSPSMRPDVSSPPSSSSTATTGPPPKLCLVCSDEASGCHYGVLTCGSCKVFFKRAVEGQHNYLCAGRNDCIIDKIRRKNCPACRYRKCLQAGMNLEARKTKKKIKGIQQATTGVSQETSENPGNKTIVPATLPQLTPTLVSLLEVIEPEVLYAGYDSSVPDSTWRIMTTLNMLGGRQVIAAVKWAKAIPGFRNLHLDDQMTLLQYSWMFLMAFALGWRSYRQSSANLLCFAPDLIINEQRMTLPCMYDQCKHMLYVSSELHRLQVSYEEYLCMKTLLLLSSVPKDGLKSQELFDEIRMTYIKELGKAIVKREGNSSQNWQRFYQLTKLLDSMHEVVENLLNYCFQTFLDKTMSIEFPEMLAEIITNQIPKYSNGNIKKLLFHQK

Structure (SMILES): CC#C[C@]1(O)CC[C@H]2[C@@H]3CCC4=CC(=O)CCC4=C3[C@@H](c3ccc(N(C)C)cc3)C[C@@]21C [mifepristone]
- anti-glucocorticoid activity in humans [1]: effective anti-glucocorticoid agent in humans
- effect on acute psychosis ([2]; 400 to 800 mg per day, severe Cushing Syndrome due to adrenal cancers and ectopic secretion of ACTH from lung cancer): useful in rapidly reversing acute psychosis
- effect on patients' conditions, including psychiatric status ([2]; Cushing's syndrome patients): improved the patients' conditions
